Reference: patent publication US9334235B2, “Plasmalogen compounds, pharmaceutical compositions containing the same and methods for treating diseases of the aging” (Phenomenome Discoveries Inc., priority 2008, dated 2016)

What was measured:
N-Rel cells [1] = experiment: Membrane cholesterol and cholesterol ester analysis (colorimetric kit) in N-Rel cells; type: cell-based, Chinese hamster; conditions: for membrane free cholesterol / membrane cholesterol esters (esterified cholesterol): 20 μM, 48 hr incubation; for membrane cholesterol levels: N-Rel cells
Experimental: (§1) Chinese hamster ovary (CHO), N-Rel^30 (a mutant CHO cell line deficient in the peroxisomal enzyme dihydroxyacetonephosphate acyltransferase), and human embryonic kidney (HEK293) cells were grown in 10 cm^2 dishes in DMEM/Ham's F12 (1:1) containing 10% FBS. Cells were incubated with plasmalogen precursors dissolved in ethanol (final ethanol concentration of 0.1%) and harvested for plasmalogen analysis by LC-MS-MS^31, and cholesterol and cholesterol ester analyses utilizing a commercial colorimetric kit (BioVision #K613).

HEK293 cells [2] = experiment: Cholesterol assay (free/esterified cholesterol) in HEK293 cells; type: cell-based, human; conditions: for membrane cholesterol (membrane free cholesterol levels): 20 μM
Experimental: as §1
(§2) HEK 293 cells, cultured in DMEM, 10% FBS at 37° C., 5% CO2, were seeded the day before the treatment. The following day, cells membranes were loaded with exogenous cholesterol at a concentration of 10 μg/ml media using methyl-β-cyclodextrin as the carrier to deliver cholesterol as described (Rong et al., 2003).
Cells were treated with the plasmalogen precursor PPI-1005 or with ethanol as the control. Cells were harvested after 48 hours using Versene: TryPLe express cocktail, washed with PBS. Lipids were extracted with chloroform containing 1% Triton X-100. The organic fraction was recovered and dried under a stream of nitrogen. The dried lipids were resuspended in cholesterol reaction buffer (Biovision, Mountain View, Calif.), and the total, free and esterified fractions of cholesterol were quantified using the cholesterol quantification kit (Biovision, Mountain View, Calif.) as per the manufacturer's recommendations. Cholesterol was initially calculated as μg/million cells, and reported as a percentage of control conditions for each experiment.

sAPPα = experiment: Immunoprecipitation/immunoblot of sAPPα in conditioned medium of HEK293 cells; type: cell-based, human; conditions: 20 μM; cholesterol loaded HEK293 cells
Experimental: (§3) HEK293 cells were treated as described in the amyloid assay. The cell pellet was washed in PBS and lysed in a RIPA buffer containing a protease inhibitor cocktail (Sigma, St. Louis, […].). Protein in the cell lysate was quantified using the Bio-Rad Protein Assay (Bio-Rad, Hercules, Calif.). The following antibodies were used for western analyses: APP (Calbiochem, Darmstadt, Germany), BACE1 and ADAM10 (Millipore, Temecula, Calif.), sAPPα (IBL, Gunma, Japan), SOAT1 (Santa Cruz Biotechnology Inc., CA), and β-actin (Sigma, St. Louis, […].). Immunoprecipitation was carried out to estimate sAPPα in the conditioned medium. Briefly, antibody to sAPPα was added to conditioned media and incubated for 16 hours at 4° C. IP was carried out by incubating with protein A/G agarose beads for 6 hours at 4° C. Beads were washed with PBS and the eluted proteins were detected by immunoblotting with anti-sAPPα antibody. Band intensities were quantified using Image Processing and Analysis in Java (ImageJ) software (National Institutes of Health, Bethesda, Md.)

HEK293 cells [3] = experiment: Amyloid assay: Aβ secreted into conditioned medium of HEK293 cells (ELISA); type: cell-based, human; conditions: for levels of AB-40 / levels of AB-42: normal cells and cholesterol loaded cells
Experimental: as §2
HEK293 cells were loaded with exogenous cholesterol as described, and treated with a PPI 1005 or with ethanol as a control. Conditioned media from the treated cells was collected at the end of a 48 hour incubation period. For assaying Aβ1-42 content, the conditioned media was enriched using Amicon ultracentrifugal filter devices (Millipore, Billerica, Mass.) prior to loading into the microplate. ELISA was carried out as per the manufacturer's recommendations (Covance Labs, Princeton, N.J.). The reactions were quenched 25 minutes after addition of the substrate, and the absorbance was read at 495 nm. The experiment was carried out in triplicate. Values were calculated as pg/ml of conditioned media, and were normalized to the amount of Aβ detected in the conditioned media from untreated, cholesterol loaded control HEK293 cells.

SOAT1 = experiment: Immunoblotting of membrane-resident protein SOAT1 in HEK293 cells; type: cell-based, human
Experimental: as §3

BACE1 = experiment: Immunoblotting of BACE1 (β-secretase) in HEK293 cells; type: cell-based, human
Experimental: as §3

CHO cells = experiment: Plasmalogen analysis by LC-MS/MS in CHO cells incubated with plasmalogen precursors; type: cell-based, Chinese hamster; conditions: for DHA plasmalogens in CHO cells: 72 hr, relative to CHO controls; for conversion to PlsEtn species: cells with unimpaired plasmalogen biosynthesis capacity (CHO)
Experimental: as §1

ADAM10 = experiment: Immunoblotting of membrane-resident protein ADAM10 in HEK293 cells; type: cell-based, human
Experimental: as §3

APP = experiment: Immunoblotting of APP in HEK293 cells; type: cell-based, human; conditions: wild-type HEK293 cells, not loaded with cholesterol
Experimental: as §3

N-Rel cells [4] = experiment: Plasmalogen analysis by LC-MS/MS in N-Rel cells incubated with plasmalogen precursors; type: cell-based, Chinese hamster; conditions: for conversion to PlsEtn species: cells with impaired plasmalogen biosynthesis capacity (N-Rel)
Experimental: as §1

[5] = Oral dosing of rabbits: liver plasmalogens and DHA; type: in vivo, New Zealand rabbits; conditions: 200 mg/kg orally; 12, 18, 24 and 48 hours
Experimental: (§4) Male New Zealand rabbits (1.8-2.5 kg) were orally dosed with PPI-1011, neat in hard gelatin capsules (size 3). For time course studies, rabbits were dosed with 200 mg/kg of PPI-1011 and animals sacrificed via euthenol overdose at 1, 3, 6, 12, 18, 24 and 48 hr. Blood was collected by cardiac puncture and plasma frozen at −70° C. for later analysis. Kidney and liver also were harvested and stored at −70° C. for later analysis. These studies were conducted as 2 experiments with overlapping groups at 12 hrs (Exp. 1: 1, 3, 6, and 12 hrs; Exp. 2: 12, 18, 24 and 48 hrs). Controls were harvested at each timepoint. Plasmalogens and lipids were extracted and analyzed by LC-MS/MS as previously reported (Goodenowe et al., 2007).

[6] = Oral dosing of rabbits: plasma plasmalogens, phosphatidylethanolamines and DHA by LC-MS/MS; type: in vivo, New Zealand rabbits
Experimental: as §4

[7] = Oral dosing of rabbits: kidney plasmalogens and DHA; type: in vivo, New Zealand rabbits; conditions: 200 mg/kg orally; 1, 3, 6 and 12 hours
Experimental: as §4

[8] = cholesterol loaded HEK293 cells (FIG. 18A)
[9] = wild-type HEK293 cells, not loaded with cholesterol

In the case of `CCC=CCC=CCC=CCC=CCC=CCC=CCCC(=O)OC(CO)COC(=O)CCCCCCCCCCCCCCC` (stereo not shown) [16:0*:DHA glycerol, reference compound], the membrane free cholesterol (N-Rel cells [1]) is reported as “inactive” and the “membrane cholesterol (membrane free cholesterol levels)” value (HEK293 cells [2]; 48 hr incubation) is reported as “inactive”.
For `CCC=CCC=CCC=CCC=CCC=CCC=CCCC(=O)OC(CO)COCCCCCCCCCCCCCCCCCC` (stereo not shown) [18:0/DHA glycerol], the “membrane cholesterol (membrane free cholesterol levels)” value (HEK293 cells [2]; 48 hr incubation) was “decrease”.
With `CC/C=C\C/C=C\C/C=C\C/C=C\C/C=C\C/C=C\CCC(=O)OC(CO)COCCCCCCCCCCCCCCCC` (stereo not shown) [PPI-1005] the “increase in sAPPα species in the conditioned medium” value (sAPPα) was 73%, the “basal and cholesterol (25.8 μM)-stimulated Aβ42 secretion” value (HEK293 cells [3]; 20 μM) was “decreases” and the “Aβ42 content in the conditioned medium, drop below cholesterol-loaded levels” value (HEK293 cells [3]; 20 μM, cholesterol loaded HEK293 cells, 48 hour incubation) was 70%. For the same compound, the “levels of AB-40” value (HEK293 cells [3]) was “decreased”, the “levels of AB-42” value (HEK293 cells [3]) was “decreased” and the “SOAT1 upregulation compared with the cholesterol loaded condition” value (SOAT1; [8]) was “approximately 25%”. The “concentration-dependent increase in abundance of SOAT1” value (SOAT1; [9]) was 50%, the β-secretase abundance (BACE1; 20 μM, cholesterol loaded HEK293 cells) was “restored to normal levels” and the “BACE I abundance” value (BACE1; [9]) was “No change”. The “DHA plasmalogens in CHO cells” value (CHO cells) was “concentration-dependent (72 hr) increase”, the “conversion to PlsEtn species” value (CHO cells) was “effectively converted to PlsEtn species” and the “increase in ADAM10” value (ADAM10; [8]) was 63%. The “concentration-dependent increase in abundance of ADAM10” value (ADAM10; [9]) was 35%, the “membrane cholesterol esters (esterified cholesterol)” value (N-Rel cells [1]) was “increases” and the membrane free cholesterol (N-Rel cells [1]) was “decreases”. The membrane cholesterol levels (N-Rel cells [1]) was “significant reduction”, the “membrane cholesterol (membrane free cholesterol levels)” value (HEK293 cells [2]; 48 hr incubation) was “decrease” and the “free cholesterol content of the cell membrane” value (HEK293 cells [2]; cholesterol loaded HEK293 cells, 48 hours) was “significantly reduced”. The APP abundance (APP) was “No change”, the “levels of total DHA plasmalogens in N-Rel cells, relative to control CHO cells” value (N-Rel cells [4]; 72 hr incubation) was “restored in a concentration-dependent manner” and the DHA-PlsEtn level (N-Rel cells [4]; N-Rel cells) was 80 % of control values. The “conversion to PlsEtn species” value (N-Rel cells [4]) was “effectively converted to PlsEtn species”.
For `CC/C=C\C/C=C\C/C=C\C/C=C\C/C=C\C/C=C\CCC(=O)OC(COCCCCCCCCCCCCCCCC)COC(=O)CC(C[N+](C)(C)C)OC(C)=O` (stereo not shown) [PPI-1009, 2-acetoxy-4-(2-((4Z,7Z,10Z,13Z,16Z,19Z)-docosa-4,7,10,13,16,19-hexaenoyloxy)-3-(hexadecyloxy)propoxy)-N,N,N-trimethyl-4-oxobutan-1-aminium], the “basal and cholesterol (25.8 μM)-stimulated Aβ42 secretion” value (HEK293 cells [3]; 10 μM) was “acted in a similar manner”, the “levels of AB-40” value (HEK293 cells [3]) was “decreased” and the “levels of AB-42” value (HEK293 cells [3]) was “decreased”. For the same compound, the “DHA plasmalogens in CHO cells” value (CHO cells) was “concentration-dependent (72 hr) increase”, the “conversion to PlsEtn species” value (CHO cells) was “effectively converted to PlsEtn species” and the “membrane cholesterol esters (esterified cholesterol)” value (N-Rel cells [1]) was “augmentation”. The membrane free cholesterol (N-Rel cells [1]) was “most robust decreases”, the membrane cholesterol levels (N-Rel cells [1]) was “concentration-dependently decrease” and the “membrane cholesterol levels, concentration response” value (HEK293 cells [2]; 48 hr incubation) was “concentration-dependently decrease”. The “time course of incorporation into plasmalogens” value (N-Rel cells [4]; 10 μM, 0, 6, 12, 24, 48 and 72 hr) was “incorporation into plasmalogens”, the “cellular levels of chimyl alcohol or the associated alkenyl-acyl-glycerol” value (N-Rel cells [4]; 10 μM, 0-72 hr, chimyl alcohol by GC-MS) was “lack of effect” and the “conversion to PlsEtn species” value (N-Rel cells [4]) was “effectively converted to PlsEtn species”.
In the case of `CC/C=C\C/C=C\C/C=C\C/C=C\C/C=C\C/C=C\CCC(=O)OC(COCCCCCCCCCCCCCCCC)COC(=O)CCCC[C@@H]1CCSS1` (stereo partly drawn) [PPI-1011, (4Z,7Z,10Z,13Z,16Z,19Z)-1-(5-((R)-1,2-dithiolan-3-yl)pentanoyloxy)-3-(hexadecyloxy)propan-2-yl docosa-4,7,10,13,16,19-hexaenoate], the “tissue plasmalogens and DHA in rabbit liver” value [5] is reported as “augmentation”, the “new steady-state level of plasma plasmalogens and phosphatidylethanolamines versus dose” value ([6]; 6 hours after oral doses of 10, 75, 200 mg/kg) is reported as “dose-dependent manner from 10 to 200 mg/kg” and the “steady-state levels of circulating DHA” value ([6]; dose of 1000 mg/kg versus 500 mg/kg) is reported as “did not further increase”. The “steady-state levels of plasmalogens and phosphatidylethanolamines above that obtained with 200 mg/kg” value ([6]; further increases in dose (500, 1000 mg/kg), 6 hours) was “did not increase”, the “deacylation at sn-2, releasing docosahexaenoic acid (DHA)” value ([6]; oral dose of 200 mg/kg) was “observed” and the “reference phosphatidylethanolamine 16:0/18:0 in plasma” value ([6]; oral dose of 200 mg/kg) was “No change”. For the same compound, the “incorporation into circulating plasmalogens” value ([6]; oral dose of 200 mg/kg, rabbit plasma) was “incorporated into circulating plasmalogens”, the oral bioavailability ([6]; rabbit) was “orally bioavailable” and the “tissue plasmalogens and DHA in rabbit kidney” value [7] was “augmentation”.
For `CC/C=C\C/C=C\C/C=C\C/C=C\C/C=C\C/C=C\CCC(=O)OC(COCCCCCCCCCCCCCCCC)COC(=O)C(CS)NC(C)=O` (stereo not shown) [PPI-1014, (4Z,7Z,10Z,13Z,16Z,19Z)-1-(2-acetamido-3-mercaptopropanoyloxy)-3-(hexadecyloxy)propan-2-yl docosa-4,7,10,13,16,19-hexaenoate], the “incorporation in N-Rel ethanolamine plasmalogens (PlsEtn) and phosphatidylethanolamines (PtdEtn)” value (N-Rel cells [4]; 72 hours, 5, 10 and 20 μM) was “structure-specific and concentration-dependent incorporation”.
In the case of `CCCCCCCCCCCCCCCCOCC(O)CO` (stereo not shown) [chimyl alcohol, reference compound], the “DHA plasmalogens in CHO cells” value (CHO cells) is reported as “no effect” and the “DHA-plasmalogens in N-Rel cells” value (N-Rel cells [4]; expressed relative to N-Rel controls) is reported as “increased”.
